Test results: BigSolDB 2.1

Cc1c(C(=O)O)cccc1[N+](=O)[O-]
solubility (mole fraction)
Details | 278.15 K | 283.15 K | 288.15 K | 293.15 K | 298.15 K | 303.15 K | 308.15 K | 313.15 K
in 1,4-dioxane | – | – | 0.0933 | 0.102 | 0.112 | 0.121 | 0.132 | 0.143
in DMF | 0.147 | 0.166 | 0.191 | 0.217 | 0.244 | 0.275 | 0.31 | 0.35
in acetonitrile | 0.00434 | 0.00523 | 0.00624 | 0.00737 | 0.00879 | 0.0104 | 0.0122 | 0.0143
in ethanol | 0.0152 | 0.0181 | 0.0216 | 0.0254 | 0.0297 | 0.0349 | 0.041 | 0.0478
in ethyl acetate | 0.0228 | 0.0258 | 0.0297 | 0.0336 | 0.0378 | 0.0426 | 0.0478 | 0.0538
in isobutanol | 0.00938 | 0.0114 | 0.014 | 0.0166 | 0.0201 | 0.024 | 0.028 | 0.033
in isopropanol | 0.0133 | 0.0161 | 0.019 | 0.0224 | 0.0266 | 0.0314 | 0.0362 | 0.0426
in isopropyl acetate | 0.0146 | 0.017 | 0.0196 | 0.023 | 0.027 | 0.031 | 0.0361 | 0.0413
in methanol | 0.0136 | 0.016 | 0.0193 | 0.0225 | 0.0264 | 0.0312 | 0.0367 | 0.0424
in methyl acetate | 0.0265 | 0.0302 | 0.0338 | 0.038 | 0.0428 | 0.0483 | 0.0539 | 0.06
in n-butanol | 0.0178 | 0.0213 | 0.0255 | 0.0308 | 0.0366 | 0.0434 | 0.0515 | 0.0608
in n-butyl acetate | 0.0165 | 0.0191 | 0.0227 | 0.0261 | 0.0296 | 0.034 | 0.039 | 0.0446
in n-propanol | 0.016 | 0.019 | 0.0227 | 0.027 | 0.032 | 0.0379 | 0.0441 | 0.0519
in n-propyl acetate | 0.0191 | 0.0221 | 0.0251 | 0.0293 | 0.0335 | 0.038 | 0.0432 | 0.049
